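Test compounds were applied to cells in 96-well plates for 48 hours at 5 doses. GI50 is the concentration that inhibits growth by half.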 Active and inactive are the calls of the source. No stated cut-off is given here; in the data, active = GI50 up to about 1.1 µM and inactive = higher.
Tests used:
Assay in all cases: NCI-60 cell line screen, 48 h
[1] = system: COLO 205
[2] = system: DLD-1
[3] = system: KM-20L2
[4] = system: NCI-H23
[5] = system: SK-OV-3
[6] = system: OVCAR-3
[7] = system: SK-MEL-28
[8] = system: KM12
[9] = system: SN12C
[10] = system: A498
[11] = system: NCI-H460
[12] = system: Malme-3M
[13] = system: U-251
[14] = system: SF-539
[15] = system: UACC-257
[16] = system: HCC 2998
[17] = system: UO-31
[18] = system: CCRF-CEM
[19] = system: UACC-62
[20] = system: OVCAR-8
[21] = system: HOP-62
[22] = system: HCT-15
[23] = system: SK-MEL-5
[24] = system: HT-29
[25] = system: LXFL 529
[26] = system: A549
[27] = system: OVCAR-4
[28] = system: M19-MEL
[29] = system: OVCAR-5
[30] = system: NCI-H522
[31] = system: SNB-75
[32] = system: HOP-18
[33] = system: NCI-H226
[34] = system: TK-10
[35] = system: IGROV-1
[36] = system: HCT-116
[37] = system: LOX IMVI
[38] = system: HOP-92
[39] = system: SF-295
[40] = system: SF-268
[41] = system: SNB-78
[42] = system: EKVX
[43] = system: SK-MEL-2
[44] = system: RXF 393
[45] = system: RXF 631
[46] = system: MOLT-4
[47] = system: M14
[48] = system: XF498
[49] = system: SNB-19
[50] = system: SW-620
[51] = system: ACHN

`CC(=O)OC1/C=C(\C)C(OC(C)=O)C/C=C(/C)CCC2C(/C=C/C1=O)C2(C)C` (stereo unspecified) was tested, and the GI50 [1] was > 100 µM (inactive), the GI50 [2] was > 100 µM (inactive) and the GI50 [3] was > 100 µM (inactive). For the same compound, the GI50 [4] was > 100 µM (inactive), the GI50 [5] was > 100 µM (inactive) and the GI50 [6] was > 100 µM (inactive). For the same compound, the GI50 [7] was > 100 µM (inactive), the GI50 [8] was > 100 µM (inactive) and the GI50 [9] was > 100 µM (inactive). The GI50 [10] was > 100 µM (inactive), the GI50 [11] was > 100 µM (inactive) and the GI50 [12] was > 100 µM (inactive). The GI50 [13] was > 100 µM (inactive), the GI50 [14] was > 100 µM (inactive) and the GI50 [15] was > 100 µM (inactive). For the same compound, the GI50 [16] was > 100 µM (inactive), the GI50 [17] was 67.5 µM (inactive) and the GI50 [18] was > 100 µM (inactive). For the same compound, the GI50 [19] was > 100 µM (inactive), the GI50 [20] was > 100 µM (inactive) and the GI50 [21] was 92.5 µM (inactive). The GI50 [22] was over 100 µM, the GI50 [23] was 92.9 µM (inactive) and the GI50 [24] was > 100 µM (inactive). The GI50 [25] was > 100 µM (inactive), the GI50 [26] was > 100 µM (inactive) and the GI50 [27] was > 100 µM (inactive). For the same compound, the GI50 [28] was > 100 µM (inactive), the GI50 [29] was > 100 µM (inactive) and the GI50 [30] was 47.8 µM (inactive). For the same compound, the GI50 [31] was 31.2 µM (inactive), the GI50 [32] was > 100 µM (inactive) and the GI50 [33] was > 100 µM (inactive). The GI50 [34] was 64.7 µM (inactive), the GI50 [35] was > 100 µM (inactive) and the GI50 [36] was > 100 µM (inactive). For the same compound, the GI50 [37] was > 100 µM (inactive), the GI50 [38] was 42.2 µM (inactive) and the GI50 [39] was 91 µM (inactive). For the same compound, the GI50 [40] was > 100 µM (inactive), the GI50 [41] was > 100 µM (inactive) and the GI50 [42] was > 100 µM (inactive). For the same compound, the GI50 [43] was > 100 µM (inactive), the GI50 [44] was 79.4 µM (inactive) and the GI50 [45] was > 100 µM (inactive). For the same compound, the GI50 [46] was > 100 µM (inactive), the GI50 [47] was > 100 µM (inactive) and the GI50 [48] was 35.7 µM (inactive). For the same compound, the GI50 [49] was > 100 µM (inactive), the GI50 [50] was > 100 µM (inactive) and the GI50 [51] was > 100 µM (inactive).

Reference: ChEMBL document CHEMBL1201862, “PubChem BioAssay data set” (2004)
